Literature values as cited in patent publication US5605915A, “Acetylenes disubstituted with a 5 substituted tetrahydronaphthyl group and with an aryl or heteroaryl group having retinoid-like biological activity” (Allergan, priority 1996, dated 1997).

Tested on: ornithine decarboxylase (ODC)
Conditions: literature statement

Row | Structure (SMILES) | effect on ODC activity
1 | CC1=C(/C=C/C(C)=C/C=C/C(C)=C/C(=O)O)C(C)(C)CCC1 [Retinoic acid] | inhibits this induction of ODC activity by TPA
2 | CCCCCCCCCCCCCC(=O)O[C@@H]1[C@@H](C)[C@@]2(O)[C@@H](C=C(CO)C[C@]3(O)C(=O)C(C)=C[C@@H]23)[C@@H]2C(C)(C)[C@]12OC(C)=O [12-0-tetradecanoylphorbol-13-acetate] | induces ODC activity
